Results on one compound are retold here after PMC8571282 (Nature Communications, 2021).

The nature of data set [1]: in vivo. The following applies: iv, 20 mg/kg.
Data set [2] concerns SARS-CoV-2 (WA1/2020 and VOC α, β, γ). Description: microbe, parasite or virus in culture. It counts as cell-based. The following applies: Severe acute respiratory syndrome coronavirus 2, Vero C1008; read-out: Half-maximal effective concentrations (EC50), range.
For data set [3] the following is noted: cited from earlier work.
A short description of data set [4]: in vitro. The following applies: human, % cell viability, HCT-8, 0.046 µM, 72 h.

On to `N#C[C@@]1(c2ccc3c(N)ncnn23)O[C@H](CO)[C@@H](O)[C@H]1O` [GS-441524], for which, in data set [1], the area under the curve AUC(0-t) (commonly the area under the concentration-time curve up to a stated or last time point) worked out at 81.1 µM·h; the peak level (Cmax) was 54.2 µM; the clearance (commonly a measure of how efficiently the substance is removed, as volume per time) is 14.3 mL/min/kg; the half-life – broadly, the time needed for the level to fall by half in the phase considered – is 3.4 h. Moreover, in data set [2], the EC50 is 110 to 680 nM. For the same compound, the oral bioavailability in data set [3] (SARS-CoV2 mouse model report, ref Li et al (J. Med Chem. 2021)) is given as 5%. Further, the oral availability in data set [3] (mice, ref Wei et al. (Bioorg. Med Chem Lett 2021, 116364)) was 16%. The viability (commonly a read-out of living cells in per cent, often relative to untreated cells) at 72 h, 0.046 µM in data set [4] is 88%.
